Source: patent US20200069685A1, “Dosing schedule for a combination of Ceritinib and an anti-PD-1 antibody molecule” (NOVARTIS AG, priority 2017, published 2020)

Tests used:
Format in all cases: in vivo, human
[1] = Ceritinib alone: side effects and dose adjustments in patients
Procedure: The doses were reduced from 750 mg in the steps of 150 mg down to the lowest 300 mg. If the patient required doses lower than 300 mg, ceritinib was discontinued. Approximately 54% of patients initiating treatment at the recommended dose of 750 mg fasted required at least one dose adjustment due to adverse reaction, with a median time to first dose reduction of approximately 7 weeks. However, based on the preliminary data from 36 patients, who were enrolled to 4 cohorts to the concomitant combination therapy of ceritinib and nivolumab, the rates of severe rash (even grade 3) were unexpectedly higher. The cohorts were as follows: cohort 1 (n=8), ceritinib 450 mg daily with a low fat meal in combination with nivolumab 3 mg/kg Q2W; cohort 2 (n=6), ceritinib 450 mg daily with a low fat meal in combination with nivolumab 3 mg/kg Q2W; cohort 3 (n=11), ceritinib 300 mg daily with a low fat meal in combination with nivolumab 3 mg/kg Q2W; cohort 4 (n=11), ceritinib 300 mg daily with a low fat meal in combination with nivolumab 3 mg/kg Q2W. Both dose levels, i.e. 450 mg and 300 mg of ceritinib, administered with the low fat meal led to severe rash. The 450 mg dose level had higher rates of some adverse events, especially grade-3 rash, than expected based on data from either single agent. The proportion of patients with grade-3 rash was higher at the 450 mg dose level, 4/14 patients (29%), than at the 300 mg dose level, 3/22 patients (14%). With regard to the efficacy of the combination therapy, of the 14 patients treated at the 450 mg dose level, 9 (64%) achieved a confirmed partial response. Of the 22 patients treated at the 300 mg dose level, 4 (18%) achieved a confirmed complete (1 patient) or partial (3 patients) response; however, limited follow up, especially for cohort 4, confounded the assessment of confirmed response. The disease control rate (DCR) was similar for the 450 mg and 300 mg dose levels, 79% and 82% respectively. […] However, the 300 mg dose level appeared to have a lower number of objective responses, although this observation was based on a small number of patients with limited follow-up. […] Therefore, based on the safety, efficacy, and PK data a new beneficial dosing regimen is provided that is expected to improve tolerability while maintaining exposure similar to that observed at the 450 mg dose level. We provide herein a dosing regimen for the combination therapy of ceritinib and an anti-PD-1 antibody molecule, where ceritinib is administered for 2 cycles before initiation of combination therapy with nivolumab. […]

[2] = Relative bioavailability study in healthy subjects, light snack cohort; conditions: light snack (approximately 100-300 calories and 1.5 grams of fat), single 750 mg oral dose
[3] = Food effect study of ceritinib in healthy subjects; conditions: single oral dose 500 mg
[4] = Ceritinib steady state PK (AUC0-24 and Cmax) in the ceritinib and nivolumab combination cohorts; conditions: preliminary; ceritinib in combination with nivolumab
Procedure: The doses were reduced from 750 mg in the steps of 150 mg down to the lowest 300 mg. If the patient required doses lower than 300 mg, ceritinib was discontinued. Approximately 54% of patients initiating treatment at the recommended dose of 750 mg fasted required at least one dose adjustment due to adverse reaction, with a median time to first dose reduction of approximately 7 weeks. However, based on the preliminary data from 36 patients, who were enrolled to 4 cohorts to the concomitant combination therapy of ceritinib and nivolumab, the rates of severe rash (even grade 3) were unexpectedly higher. The cohorts were as follows: cohort 1 (n=8), ceritinib 450 mg daily with a low fat meal in combination with nivolumab 3 mg/kg Q2W; cohort 2 (n=6), ceritinib 450 mg daily with a low fat meal in combination with nivolumab 3 mg/kg Q2W; cohort 3 (n=11), ceritinib 300 mg daily with a low fat meal in combination with nivolumab 3 mg/kg Q2W; cohort 4 (n=11), ceritinib 300 mg daily with a low fat meal in combination with nivolumab 3 mg/kg Q2W. Both dose levels, i.e. 450 mg and 300 mg of ceritinib, administered with the low fat meal led to severe rash. The 450 mg dose level had higher rates of some adverse events, especially grade-3 rash, than expected based on data from either single agent. […]

[5] = high-fat meal (approximately 1000 calories and 58 grams of fat)
[6] = low-fat meal (approximately 330 calories and 9 grams of fat)

Cc1cc(Nc2ncc(Cl)c(Nc3ccccc3S(=O)(=O)C(C)C)n2)c(OC(C)C)cc1C1CCNCC1 [ceritinib, 5-chloro-N2-(2-isopropoxy-5-methyl-4-(piperidin-4-yl)phenyl)-N4-[2-(propane-2-sulfonyl)-phenyl]-pyrimidine-2,4-diamine]
rash [1]: observed rarely | side effects observed [1]: nausea, diarrhea, vomiting, fatigue, ALT/AST elevation, constipation, abdominal pain | median time to first dose reduction ([1]; 750 mg fasted): approximately 7 weeks | patients who required at least one dose adjustment due to adverse reaction ([1]; recommended dose of 750 mg fasted): Approximately 54% | increase of AUCinf compared to the fasted condition [2]: 54% | increase of Cmax compared to the fasted condition [2]: 45% | increase of AUCinf compared to the fasted state [3, 5]: 73% | increase of Cmax compared to the fasted state [3, 5]: 41% | increase of AUCinf compared to the fasted state [3, 6]: 58% | increase of Cmax compared to the fasted state [3, 6]: 43% | steady state exposure (AUC0-24 and Cmax) at 300 mg with food relative to 450 mg with food [4]: 60-65%
